Measured values as given in US20180256496A1, “CONTROLLED-RELEASE FORMULATIONS” (Camurus AB, priority 2015, published 2018).

Design: species or system dog (beagle)
Conditions: dog, in vivo, sc
Procedure: The in vivo release profiles of granisetron and buprenorphine after subcutaneous injection of Formulations 7A and 7B (Example 7) in dog (beagle) was evaluated using the doses set out in Table 13. The animals were dosed on Days 1 and 8 with the respective formulation.
A validated bioanalytical method was used for the determination of GRN in dog plasma. The analytical method employed liquid chromatography with tandem mass spectrometric detection. The lower limit of quantification of the analytical method was 0.05 ng/mL. The calibration curve ranged from 0.05 to 50.0 ng/mL. Samples above the upper limit of quantitation were diluted into range using control beagle K2-EDTA plasma.

CN1[C@@H]2CCC[C@H]1C[C@@H](NC(=O)c1nn(C)c3ccccc13)C2 [granisetron]
dose linearity with respect to exposure (AUC): dose linearity was indicated
